What all share (type): biochemical
The target of test [1] is c-Kit (Homo sapiens (Human), UniProt P10721). Nature of the test: FRET-based Z'-Lyte kinase assay, c-kit. To be noted: 300 μM ATP.
Test [2] deals with DDR2 (Homo sapiens (Human), UniProt Q16832). Nature of the test: LanthaScreen Eu kinase activity assay, DDR2. The note with it: 100 nM ATP.
Test [3] concerns the target DDR1 (Homo sapiens (Human), UniProt Q08345). Nature of the test: LanthaScreen Eu kinase activity assay, DDR1. To be noted: 100 nM ATP.

Some results are limits rather than exact numbers.

Sequence of DDR2 (Q16832 22-855): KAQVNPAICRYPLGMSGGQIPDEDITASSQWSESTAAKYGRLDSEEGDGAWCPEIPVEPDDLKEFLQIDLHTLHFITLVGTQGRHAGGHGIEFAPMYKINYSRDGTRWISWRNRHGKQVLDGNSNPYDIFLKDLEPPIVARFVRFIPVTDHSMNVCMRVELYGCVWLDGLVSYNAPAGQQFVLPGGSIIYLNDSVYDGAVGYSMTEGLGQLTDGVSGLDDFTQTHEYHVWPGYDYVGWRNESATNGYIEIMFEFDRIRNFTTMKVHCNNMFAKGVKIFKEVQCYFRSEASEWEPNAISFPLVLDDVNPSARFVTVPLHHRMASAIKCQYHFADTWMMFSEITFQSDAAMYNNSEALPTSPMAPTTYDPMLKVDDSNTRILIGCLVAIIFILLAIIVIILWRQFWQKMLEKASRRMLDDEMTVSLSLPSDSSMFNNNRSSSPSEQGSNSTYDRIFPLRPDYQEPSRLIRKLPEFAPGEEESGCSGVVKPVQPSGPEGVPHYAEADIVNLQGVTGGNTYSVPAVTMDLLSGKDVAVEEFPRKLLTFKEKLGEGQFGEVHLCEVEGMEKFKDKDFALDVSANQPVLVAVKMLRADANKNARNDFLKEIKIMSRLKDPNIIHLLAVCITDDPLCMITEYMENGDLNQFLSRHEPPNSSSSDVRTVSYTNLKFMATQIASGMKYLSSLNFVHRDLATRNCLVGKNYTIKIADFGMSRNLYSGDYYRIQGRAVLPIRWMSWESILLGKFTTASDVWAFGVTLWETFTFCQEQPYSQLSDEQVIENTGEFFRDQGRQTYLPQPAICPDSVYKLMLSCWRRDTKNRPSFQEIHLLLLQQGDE
Sequence of c-Kit (P10721 26-976): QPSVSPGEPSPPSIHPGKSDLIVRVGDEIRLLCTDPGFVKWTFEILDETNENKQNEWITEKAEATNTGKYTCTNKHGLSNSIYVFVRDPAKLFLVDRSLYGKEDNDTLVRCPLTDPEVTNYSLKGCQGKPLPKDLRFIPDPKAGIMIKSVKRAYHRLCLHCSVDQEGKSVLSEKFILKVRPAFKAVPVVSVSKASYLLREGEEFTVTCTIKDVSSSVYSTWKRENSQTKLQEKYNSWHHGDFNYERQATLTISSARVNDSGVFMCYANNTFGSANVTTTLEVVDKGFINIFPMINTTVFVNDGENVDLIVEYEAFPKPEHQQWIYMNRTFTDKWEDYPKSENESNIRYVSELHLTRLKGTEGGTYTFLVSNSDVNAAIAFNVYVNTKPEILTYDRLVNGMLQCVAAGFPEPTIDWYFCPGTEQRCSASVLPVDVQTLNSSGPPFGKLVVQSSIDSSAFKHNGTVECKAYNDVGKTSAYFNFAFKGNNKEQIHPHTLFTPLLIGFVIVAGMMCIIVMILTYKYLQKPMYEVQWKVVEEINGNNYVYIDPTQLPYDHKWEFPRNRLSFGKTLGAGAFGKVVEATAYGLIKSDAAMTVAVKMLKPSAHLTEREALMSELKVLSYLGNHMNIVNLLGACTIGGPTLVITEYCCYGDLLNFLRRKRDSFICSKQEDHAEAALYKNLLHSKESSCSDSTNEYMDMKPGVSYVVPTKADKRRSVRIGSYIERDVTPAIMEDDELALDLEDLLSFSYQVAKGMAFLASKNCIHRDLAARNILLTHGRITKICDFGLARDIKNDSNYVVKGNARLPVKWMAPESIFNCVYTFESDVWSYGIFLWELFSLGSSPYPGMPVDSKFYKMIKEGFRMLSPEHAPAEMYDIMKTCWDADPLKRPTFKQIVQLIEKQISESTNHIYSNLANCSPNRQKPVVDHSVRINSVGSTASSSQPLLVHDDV
Sequence of DDR1 (Q08345 19-913): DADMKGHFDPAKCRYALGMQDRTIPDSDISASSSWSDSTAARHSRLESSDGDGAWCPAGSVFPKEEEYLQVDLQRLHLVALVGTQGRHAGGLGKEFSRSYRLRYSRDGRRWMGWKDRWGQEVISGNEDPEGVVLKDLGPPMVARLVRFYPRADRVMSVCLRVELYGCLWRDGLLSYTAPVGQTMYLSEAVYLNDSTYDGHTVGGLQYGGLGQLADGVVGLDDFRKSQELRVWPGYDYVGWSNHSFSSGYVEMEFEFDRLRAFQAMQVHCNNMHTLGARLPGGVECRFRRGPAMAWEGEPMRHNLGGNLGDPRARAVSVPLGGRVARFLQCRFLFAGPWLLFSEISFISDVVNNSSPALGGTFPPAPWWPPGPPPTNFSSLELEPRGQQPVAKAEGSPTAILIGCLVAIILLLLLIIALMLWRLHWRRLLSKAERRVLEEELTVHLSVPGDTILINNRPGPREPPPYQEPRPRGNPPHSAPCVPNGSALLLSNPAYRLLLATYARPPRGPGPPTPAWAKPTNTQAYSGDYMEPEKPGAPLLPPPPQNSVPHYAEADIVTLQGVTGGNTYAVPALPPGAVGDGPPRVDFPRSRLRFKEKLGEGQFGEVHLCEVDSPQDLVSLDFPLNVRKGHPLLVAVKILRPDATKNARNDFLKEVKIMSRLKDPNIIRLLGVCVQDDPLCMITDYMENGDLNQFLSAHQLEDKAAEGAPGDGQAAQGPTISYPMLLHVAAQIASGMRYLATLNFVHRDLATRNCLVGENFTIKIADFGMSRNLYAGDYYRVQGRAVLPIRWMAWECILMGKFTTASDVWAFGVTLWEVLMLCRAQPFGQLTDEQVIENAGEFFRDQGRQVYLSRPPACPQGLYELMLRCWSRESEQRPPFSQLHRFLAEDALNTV

Take `CC1CN(c2cncnc2)Cc2cc(C(=O)Nc3cc(CN4CCN(C)CC4)cc(C(F)(F)F)c3)ccc21` (stereo not shown) [Example 1, 4-methyl-N-(3-((4-methylpiperazin-1-yl)methyl)-5-(trifluoromethyl)phenyl)-2-(pyrimidin-5-yl)-1,2,3,4-tetrahydroisoquinoline-7-carboxamide]: the IC50 in test [1] was > 10000 nM.
For `CN1CCN(Cc2cc(NC(=O)c3ccc4c(c3)CN(c3cncnc3)CC4)cc(C(F)(F)F)c2)CC1` [Example 3, N-(3-((4-methylpiperazin-1-yl)methyl)-5-(trifluoromethyl)phenyl)-2-(pyrimidin-5-yl)-1,2,3,4-tetrahydroisoquinoline-7-carboxamide], the IC50 was > 10000 nM in test [1] and 8 µM in test [2] (cells printed in μM).
Consider `CN1CCN(Cc2cc(NC(=O)c3ccc4c(c3)CN(c3cccnc3)CC4)cc(C(F)(F)F)c2)CC1` [Example 4, N-(3-((4-methylpiperazin-1-yl)methyl)-5-(trifluoromethyl)phenyl)-2-(pyridin-3-yl)-1,2,3,4-tetrahydroisoquinoline-7-carboxamide], for which the IC50 in test [1] was > 10000 nM; in test [2] (cells printed in μM), 4.3 µM.
In turn, `CN1CCN(Cc2cc(NC(=O)c3ccc4c(c3)CN(c3cnc5ccccc5c3)CC4)cc(C(F)(F)F)c2)CC1` [Example 5, N-(3-((4-methylpiperazin-1-yl)methyl)-5-(trifluoromethyl)phenyl)-2-(quinolin-3-yl)-1,2,3,4-tetrahydroisoquinoline-7-carboxamide] displayed an IC50 in test [1] of 8700 nM.
Take `CC1CN(c2cccnc2)Cc2cc(C(=O)Nc3cc(CN4CCN(C)CC4)cc(C(F)(F)F)c3)ccc21` (stereo not shown) [Example 6, 4-methyl-N-(3-((4-methylpiperazin-1-yl)methyl)-5-(trifluoromethyl)phenyl)-2-(pyridin-3-yl)-1,2,3,4-tetrahydroisoquinoline-7-carboxamide]: the IC50 is > 10000 nM in test [1] and 1.2 µM in test [2] (cells printed in μM).
Take `CC1CN(c2cncnc2)Cc2cc(C(=O)Nc3cc(CN4CCN(C)CC4)c(Cl)c(C(F)(F)F)c3)ccc21` (stereo not shown) [Example 8, N-(4-chloro-3-((4-methylpiperazin-1-yl)methyl)-5-(trifluoromethyl)phenyl)-4-methyl-2-(pyrimidin-5-yl)-1,2,3,4-tetrahydroisoquinoline-7-carboxamide]: the figures for the IC50 in test [1] and in test [2] (cells without unit) were > 10000 nM and 0.915 µM, respectively.
For `Cc1c(CN2CCN(C)CC2)cc(NC(=O)c2ccc3c(c2)CN(c2cncnc2)CC3C)cc1C(F)(F)F` (stereo not shown) [Example 9, 4-methyl-N-(4-methyl-3-((4-methylpiperazin-1-yl)methyl)-5-(trifluoromethyl)phenyl)-2-(pyrimidin-5-yl)-1,2,3,4-tetrahydroisoquinoline-7-carboxamide], the IC50 in test [1] is > 10000 nM; in test [2] (cells printed in μM), 1.1 µM.
As for `CC1CN(c2cncnc2)Cc2cc(C(=O)Nc3ccc(CN4CCN(C)CC4)c(C(F)(F)F)c3)ccc21` (stereo not shown) [Example 12, 4-methyl-N-(4-((4-methylpiperazin-1-yl)methyl)-3-(trifluoromethyl)phenyl)-2-(pyrimidin-5-yl)-1,2,3,4-tetrahydroisoquinoline-7-carboxamide], the IC50 in test [1] was > 10000 nM; in test [2] (cells without unit), 0.334 µM; in test [3], 19.9 nM.
For the compound `CC1CN(c2cncnc2)Cc2cc(C(=O)Nc3cc(CN(C)CCN(C)C)cc(C(F)(F)F)c3)ccc21` (stereo not shown) [Example 23, N-(3-(((2-(dimethylamino)ethyl)(methyl)amino)methyl)-5-(trifluoromethyl)phenyl)-4-methyl-2-(pyrimidin-5-yl)-1,2,3,4-tetrahydroisoquinoline-7-carboxamide], the IC50 in test [1] was > 10000 nM; in test [2] (cells printed in μM) it was 1.2 µM.
Consider `CC1CN(c2cncnc2)Cc2cc(C(=O)Nc3cc(CN4CC[C@@H](N(C)C)C4)cc(C(F)(F)F)c3)ccc21` (stereo partly drawn) [Example 24, N-(3-(((R)-3-(dimethylamino)pyrrolidin-1-yl)methyl)-5-(trifluoromethyl)phenyl)-4-methyl-2-(pyrimidin-5-yl)-1,2,3,4-tetrahydroisoquinoline-7-carboxamide], for which the IC50 is > 10000 nM in test [1] and 0.672 µM in test [2] (cells without unit).
For `CC1CN(c2cncnc2)Cc2cc(C(=O)Nc3cc(CN4CC[C@H](N(C)C)C4)cc(C(F)(F)F)c3)ccc21` (stereo partly drawn) [Example 25, N-(3-(((S)-3-(dimethylamino)pyrrolidin-1-yl)methyl)-5-(trifluoromethyl)phenyl)-4-methyl-2-(pyrimidin-5-yl)-1,2,3,4-tetrahydroisoquinoline-7-carboxamide] the same measures were > 10000 nM and 0.862 µM.
As for `CC1CN(c2cncnc2)Cc2cc(C(=O)Nc3cc(CN4CCN(C)CC4)c(F)c(C(F)(F)F)c3)ccc21` (stereo not shown) [Example 27, N-(4-fluoro-3-((4-methylpiperazin-1-yl)methyl)-5-(trifluoromethyl)phenyl)-4-methyl-2-(pyrimidin-5-yl)-1,2,3,4-tetrahydroisoquinoline-7-carboxamide], the IC50 in test [1] was > 10000 nM; in test [2] (cells printed in μM), 1.4 µM.
`CC1CN(c2cncnc2)Cc2cc(C(=O)Nc3cc(CN4CCN(C)CC4)cc(C(C)(C)C)c3)ccc21` (stereo not shown) [Example 28, N-(3-tert-butyl-5-((4-methylpiperazin-1-yl)methyl)phenyl)-4-methyl-2-(pyrimidin-5-yl)-1,2,3,4-tetrahydroisoquinoline-7-carboxamide]: the IC50 in test [1] is > 10000 nM; in test [2] (cells without unit), 0.94 µM; in test [3], 66.6 nM.
Regarding `CC1CN(c2cncnc2)Cc2cc(C(=O)Nc3cc(CN4CCN(C)CC4)cc(C4CCCC4)c3)ccc21` (stereo not shown) [Example 32, N-(3-cyclopentyl-5-((4-methylpiperazin-1-yl)methyl)phenyl)-4-methyl-2-(pyrimidin-5-yl)-1,2,3,4-tetrahydroisoquinoline-7-carboxamide], the IC50 in test [1] is > 10000 nM; in test [2] (cells without unit), 0.306 µM.
On to `CCC1CN(c2cncnc2)Cc2cc(C(=O)Nc3cc(CN4CCN(C)CC4)cc(C(F)(F)F)c3)ccc21` (stereo not shown) [Example 34, 4-ethyl-N-(3-((4-methylpiperazin-1-yl)methyl)-5-(trifluoromethyl)phenyl)-2-(pyrimidin-5-yl)-1,2,3,4-tetrahydroisoquinoline-7-carboxamide], for which the IC50 in test [1] is > 10000 nM; in test [2] (cells printed in μM) it was 2 µM.
The like results for `CN1CCN(Cc2cc(C(=O)Nc3ccc4c(c3)CN(c3cncnc3)CC4)cc(C(F)(F)F)c2)CC1` [Example 36, 3-((4-methylpiperazin-1-yl)methyl)-N-(2-(pyrimidin-5-yl)-1,2,3,4-tetrahydroisoquinolin-7-yl)-5-(trifluoromethyl)benzamide] were, in that order, > 10000 nM and 7.8 µM.
For the compound `C[C@@H]1CN(c2cncnc2)Cc2cc(C(=O)Nc3cc(CN4CCN(C)CC4)cc(C(F)(F)F)c3)ccc21` [Example 37, (S)-4-methyl-N-(3-((4-methylpiperazin-1-yl)methyl)-5-(trifluoromethyl)phenyl)-2-(pyrimidin-5-yl)-1,2,3,4-tetrahydroisoquinoline-7-carboxamide], the IC50 in test [1] is > 10000 nM.
Same read-out and setting: the figure for `C[C@H]1CN(c2cncnc2)Cc2cc(C(=O)Nc3cc(CN4CCN(C)CC4)cc(C(F)(F)F)c3)ccc21` [Example 38, (R)-4-methyl-N-(3-((4-methylpiperazin-1-yl)methyl)-5-(trifluoromethyl)phenyl)-2-(pyrimidin-5-yl)-1,2,3,4-tetrahydroisoquinoline-7-carboxamide] is > 10000 nM.

The values above are taken from patent US10370360B2, “Small-molecule inhibitors targeting discoidin domain receptor 1 and uses thereof” (priority 2014, dated 2019).
